According to patent publication US8258295B2, “Triazine derivatives, compositions containing such derivatives, and methods of treatment of cancer and autoimmune diseases using such derivatives” (Prometic Biosciences Inc., priority 2007, dated 2012):
pIC50: −log10 of the molar value. Like-named read-outs stand apart in the source and are kept apart here.

Tests used:
[1] = tested on: NHDF (normal human dermal fibroblast); assay: MTT cytotoxicity on NHDF; assay type: cell-based
Procedure: (§1) This assay was performed to determine the effect of compounds of the present invention on cell cytotoxicity. Cells were incubated in presence or absence of compounds in their respective conditioned media. After 24 hr or 72 hr incubation, 50 μl of 3-(4,5-dimethyl-2-thiazyl)-2,5-diphenyl-2H-tetrazolium bromide (MTT; 2 mg/ml) was added and further incubated for 4 hr. The supernatant was discarded and 100 μl of dimethylsulfoxide (DMSO) was added. Absorbance was read at 570 nm with a TecanSunrise ELISA plate reader. The control group consisted of cells without compounds and is referred to as 100% of viable cells. IC50 was determined using Prism software.
(§2) All compounds have weak effect on cell cytotoxicity. The predictive utility of cell based cytotoxicity assays to assess the potential in vivo anticancer activity of compounds with selected cancer cell lines is well established in the art and the use of whole cells, instead of isolated protein receptors or enzymes, provides a more reliable determination of activity. See, for example, Paull et al. (J. Nat'l Cancer Inst. 81:1088-1092, 1989); Monks et al. (J. Nat'l Cancer Inst. 83:757-766, 1991); Bandes et al. (J. Nat'l Cancer Inst. 86:770-775, 1994); and Kamate et al. (Int'l J. Cancer 100:571-579, 2002).

[2] = tested on: HUVEC (human umbilical vein endothelial cell); assay: MTT cytotoxicity on HUVEC; assay type: cell-based
Procedure: as §1, §2

[3] = tested on: PC-3 human prostate carcinoma cell; assay: MTT cytotoxicity on PC-3; assay type: cell-based
Procedure: as §1, §2

[4] = tested on: P815 murine mastocytoma cell; assay: MTT cytotoxicity on P815; assay type: cell-based; conditions: Mus musculus
Procedure: as §1, §2

TNFα = TNFα (Homo sapiens, UniProt P01375); assay: TNFα-induced apoptosis in WEHI-13VAR cell line; assay type: cell-based; conditions: for inhibition at 10 µM: 1 × 10^−5 M; for inhibition at 20 µM: 2 × 10^−5 M; for inhibition at 40 µM: 4 × 10^−5 M; for inhibition at 5 µM: 5 × 10^−6 M
Procedure: Effect of compounds on TNFα-induced apoptosis was measured by a standard biological assay using WEHI-13VAR cells. These cells undergo apoptosis when they are incubated in the presence of TNFα and actinomycin D. 2×10^4 WEHI-13VAR cells were incubated in RPMI supplemented with 1% sodium pyruvate and 10% FBS, overnight at 37° C. for cell adherence. The cells were then cultured in the presence of 1 μg/ml of actimomycin D ([…]) and 0.04 nM TNFα with or without compounds at 37° C. After 16 hr to 24 hr, 50 μl of a solution of 2 mg/ml of MIT was added to each well and the plate was then incubated for 4 hr at 37° C. Only viable cells metabolize MTT to form formazan salt, which is detectable by the measurement of absorbance at 570 nm. After the incubation, the plate was inverted to remove medium and dead cells. 150 μDMSO was added to each well to stop the reaction and solubilize the formazan salt. Optical density was read on a Bio-Tek EL 800 UV microplate reader. A decrease in the optical density is direct evidence of cell apoptosis induced by TNFα. Compounds were also compared to the activity of an anti-TNFα neutralizing antibody.

PBML cytotoxicity (MTT) = assay type: cell-based, human; conditions: human, resting PBML
Source text: (§3) PBML were obtained from the peripheral blood of healthy volunteers. Blood was submitted to gradient centrifugation with Lympholyte-Poly media (Cedarlane, Hornby, Canada). The layer containing the mononuclear leukocytes was collected and the cells washed three times in PBS. Cells were then suspended in RPMI (Gibco, Burlington, Canada) supplemented with 10% FBS (Hyclone, Logan USA). Viability was greater than 99% as determined by trypan blue exclusion.
(§4) PBML were resuspended at 2×10^6 cells/ml. 100 μl of PBML (2×10^5 cells) were incubated in a 96-well microtiter plate for 48 hr in the presence or absence of compound. Cells were quiescent or stimulated with concanavalin A (con A; T-cells) or pokeweed mitogen (PWM; B-cells). After incubation, cells were treated with MTT (cytotoxicity) or pulsed with 1 μCi of [^3H]-thymidine (DNA synthesis), [^3H]-uridine (RNA synthesis), or [^3H]-leucine (protein synthesis) for 6 hr. Plates were harvested on a Tomteck and counted on a Microbeta β-counter.

[5] = tested on: peripheral blood mononuclear leukocytes (PBML); assay: PBML cytotoxicity (MTT); assay type: cell-based, human; conditions: 48 hr
Source text: as §3, §4

[6] = tested on: peripheral blood mononuclear leukocytes (PBML); assay: PBML DNA synthesis ([3H]-thymidine); assay type: cell-based; conditions: Homo sapiens, Leukocyte, 48 hr
Source text: as §3, §4

[7] = tested on: peripheral blood mononuclear leukocytes (PBML); assay: PBML RNA synthesis ([3H]-uridine); assay type: cell-based; conditions: Homo sapiens, Leukocyte, 48 hr
Source text: as §3, §4

[8] = tested on: peripheral blood mononuclear leukocytes (PBML); assay: PBML protein synthesis ([3H]-leucine); assay type: cell-based; conditions: Homo sapiens, Leukocyte, 48 hr
Source text: as §3, §4

[9] = tested on: oxazolone-induced delayed-type hypersensitivity (DTH); assay: Oxazolone-induced delayed-type hypersensitivity (DTH) in mice; assay type: in vivo
Procedure: Compounds were tested for their ability to treat oxazolone-induced delayed-type hypersensitivity (DTH) in mice. […] On day 0, day 1, and day 2, mice were treated by intravenous (IV) or oral (PO) administrations of the vehicle (control) or methotrexate (MTX; positive control/IV) or hydrocortisone (positive control/PO) or the compound at concentration lower than or equal to 50 mg/kg or as specified. Mice were challenged with an application of 50 μl of oxazolone on the surface of the right ear (first challenge, day 3; second challenge, day 10). Ear thickness was measured on day 4 to day 7, and on day 11 to 14. Redness and crust formation was also observed. Mice were sacrificed on day 14. TDTH (CD4) cells play an important role in regulating the intensity of the DTH response. Compounds may exert an inhibitory influence on the DTH response through its inhibition of T-cell activation and DNA, RNA, and/or protein synthesis.

[10] = 24 hr culture, read-out: IC50 of 24-hour culture NHDF
[11] = 72 hr culture, read-out: IC50 of 72-hour culture NHDF
[12] = 24 hr culture, read-out: IC50 of 24-hour culture HUVEC
[13] = 72 hr culture, read-out: IC50 of 72-hour culture HUVEC
[14] = 24 hr culture, read-out: IC50 of 24-hour culture PC-3
[15] = 72 hr culture, read-out: IC50 of 72-hour culture PC-3
[16] = 24 hr culture, read-out: IC50 of 24-hour culture P815
[17] = 72 hr culture, read-out: IC50 of 72-hour culture P815
[18] = PWM stimulated PBML, read-out: Cytotoxicity PWM
[19] = con A stimulated PBML, read-out: Cytotoxicity Con A
[20] = PWM stimulated PBML, read-out: DNA Synthesis PWM
[21] = con A stimulated PBML, read-out: DNA Synthesis Con A
[22] = resting PBML, read-out: DNA Synthesis Resting
[23] = PWM stimulated PBML, read-out: RNA Synthesis PWM
[24] = resting PBML, read-out: RNA Synthesis Resting
[25] = PWM stimulated PBML, read-out: Protein Synthesis PWM
[26] = con A stimulated PBML, read-out: Protein Synthesis Con A
[27] = resting PBML, read-out: Protein Synthesis Resting

TNFα, sequence (P01375 77-233 limits assumed, species assumed): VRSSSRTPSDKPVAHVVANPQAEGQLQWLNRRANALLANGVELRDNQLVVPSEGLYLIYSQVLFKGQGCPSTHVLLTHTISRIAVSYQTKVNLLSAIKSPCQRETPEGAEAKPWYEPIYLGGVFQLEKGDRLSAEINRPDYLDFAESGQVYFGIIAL

Row | SMILES | pIC50 [1, 10] | pIC50 [1, 11] | pIC50 [2, 12] | pIC50 [2, 13] | pIC50 [3, 14] | pIC50 [3, 15] | pIC50 [4, 16] | pIC50 [4, 17] | inhibition at 10 µM (TNFα) [%] | inhibition at 20 µM (TNFα) [%] | inhibition at 5 µM (TNFα) [%] | IC50 at 48 h (PBML cytotoxicity (MTT)) [µM] | pIC50 [5, 18] | pIC50 [5, 19] | pIC50 [6, 20] | pIC50 [6, 21] | pIC50 [6, 22] | pIC50 [7, 23] | pIC50 [7, 24] | pIC50 [8, 25] | further results
1 | NCCCCCNc1nc(NCCc2ccc(S(N)(=O)=O)cc2)nc(Nc2cccc(F)c2)n1 [Compound II] | < 4.00 | 4.54 | 4.04 | 4.41 | 4.49 | 4.73 | 4.18 | 5.80 | 64.2 | 83.8 | 45.2 | > 10 | < 5.00 | < 5.00 | 5.77 | 5.54 | < 5.00 | 5.96 | 5.24 | 5.24 | inhibition at 40 µM (TNFα): 78.9%; pIC50 [8, 26]: 5.19; pIC50 [8, 27]: < 5.00; inflammation (ear thickness) after DTH ([9]; IV 5 mg/kg, first challenge of oxazolone): significant reduction of the inflammation; inflammation (ear thickness) after DTH ([9]; IV 5 mg/kg, second challenge of oxazolone): significant reduction of the inflammation
2 | NCCCCCNc1nc(NCCc2ccc(O)cc2)nc(Nc2cccc(F)c2)n1 [Compound I] | 4.25 | 4.79 | 4.73 | 5.00 | 4.31 | 4.93 | 4.47 | 5.40 | 33.1 | 58.9 | 17.9 | > 10 | < 5.00 | < 5.00 | 5.55 | 5.43 | < 5.00 | 5.66 | 5.17 | 5.00 | pIC50 [8, 26]: 5.36; pIC50 [8, 27]: < 5.00; inflammation (ear thickness) after DTH ([9]; IV 25 mg/kg, first challenge of oxazolone): significant reduction of the inflammation; inflammation (ear thickness) after DTH ([9]; IV 25 mg/kg, second challenge of oxazolone): significant reduction of the inflammation
3 | NCCCCCNc1nc(NCCc2ccc(O)cc2)nc(Nc2ccc(F)cc2)n1 [Compound V] | 4.10 | 4.34 | 4.50 | < 4.00 | 4.36 | 4.57 | 4.63 | 5.12 | 22.2 | 51.9 | 8.2 | > 10 | < 5.00 | < 5.00 | 5.21 | 5.10 | < 5.00 | 5.35 | 5.13 | < 5.00 | inhibition at 40 µM (TNFα): 75.9%; pIC50 ([7]; con A stimulated PBML, read-out: RNA Synthesis Con A): 5.22; pIC50 [8, 26]: < 5.00; pIC50 [8, 27]: < 5.00; inflammation (ear thickness) after DTH ([9]; oral 50 mg/kg, FIG. 15): significant reduction of the inflammation
